# From patent US20240058299A1 (Humanetics Corporation, priority 2021, published 2024)
# “Also recorded” adds a separate entry of the source.
# Assays:
# [1] = Solubility in pharmaceutically acceptable solvents; assay type: physicochemical; settings: several pharmaceutically acceptable solvents
# Source text: The relative amount of genistein included in such a suspension can be varied to yield a formulation having a desired total content of genistein.
# [2] = tested on: microHeart cells (human induced pluripotent stem cell-derived cardiac cells); experiment: Survival of irradiated microHeart cells by trypan blue staining; assay type: cell-based
# Description: Cell survival was measured by trypan blue staining. The number of surviving cells 24 hours after irradiation is plotted. […] Cell survival was measured by trypan blue staining. The number of surviving cells 72 hours after irradiation is plotted.
# Further studies using genistein were conducted in microHeart cells (StemoniX, Maple Grove, MN) exposed to different types of radiation. […] Cell survival was evaluated 24 hours after radiation exposure. […] Cell survival was evaluated 72 hours after radiation exposure. […] Moreover, since cell death causes the release of pro-inflammatory signals, protecting cells from death may reduce inflammation.
# [3] = tested on: NF-κB, pro-inflammatory cytokines (IL-1, IL-6, TNFα), pro-fibrotic proteins (TGFβ, MMP-2, MMP-9, LDH); settings: literature reports; cited from earlier work
structure (smiles),measurement,setting,value
"O=c1c(-c2ccc(O)cc2)coc2cc(O)cc(O)c12 [genistein, 5,7-dihydroxy-3-(4-hydroxyphenyl)-4H-chromen-4-one]",solubility,[1],low to virtually no solubility
same,killing effect of γ-radiation (cell survival),"[2]; 0.5 μM or 5 μM, 24 hours before 1 Gy γ-radiation, survival 24 hours after irradiation",the killing effect was mitigated by genistein; also recorded: Genistein treatment was radioprotective
same,killing effect of mixed field radiation (cell survival),"[2]; 0.5 μM, 24 hours before 1 Gy mixed field radiation (˜32% neutron, −68% gamma), survival 72 hours after irradiation",the killing effect was again mitigated by genistein; also recorded: genistein was radioprotective
same,"expression of NF-κB, pro-inflammatory cytokines and pro-fibrotic proteins",[3],reduce expression
